Results reported in patent US20240366770A1, “DEGRADATION OF BRUTON'S TYROSINE KINASE (BTK) BY CONJUGATION OF BTK INHIBITORS WITH E3 LIGASE LIGAND AND METHODS OF USE” (BeiGene Switzerland GmbH, priority 2021, published 2024).

Assays:
BTK = biological target: T1, BTK (Homo sapiens, UniProt Q06187); experiment: BTK degradation in TMD-8 cells (HTRF assay); type: cell-based; conditions: 6 h treatment, IC50 (DC50) of BTK degradation
T1 construct: High control=Cell group with added DMSO and without compound, indicating microplate readings without BTK degradation; endogenous in cells; host or cells: TMD-8
T1 sequence (Q06187 whole entry): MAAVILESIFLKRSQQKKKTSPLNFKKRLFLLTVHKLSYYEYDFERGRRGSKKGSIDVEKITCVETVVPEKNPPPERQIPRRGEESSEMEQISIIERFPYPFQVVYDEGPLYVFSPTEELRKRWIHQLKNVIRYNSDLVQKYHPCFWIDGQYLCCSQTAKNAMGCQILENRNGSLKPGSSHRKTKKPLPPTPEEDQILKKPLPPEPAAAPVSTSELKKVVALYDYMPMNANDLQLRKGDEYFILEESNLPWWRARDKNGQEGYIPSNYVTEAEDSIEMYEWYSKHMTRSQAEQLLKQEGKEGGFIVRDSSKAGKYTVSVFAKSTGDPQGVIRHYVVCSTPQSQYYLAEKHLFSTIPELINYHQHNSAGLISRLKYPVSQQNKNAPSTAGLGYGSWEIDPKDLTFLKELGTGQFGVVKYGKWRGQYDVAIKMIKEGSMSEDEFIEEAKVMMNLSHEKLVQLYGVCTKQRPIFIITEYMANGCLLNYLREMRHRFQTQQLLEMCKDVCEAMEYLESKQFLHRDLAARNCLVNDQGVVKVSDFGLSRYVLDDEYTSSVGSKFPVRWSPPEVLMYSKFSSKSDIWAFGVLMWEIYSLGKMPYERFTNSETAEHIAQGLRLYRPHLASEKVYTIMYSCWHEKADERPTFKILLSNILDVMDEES
In short: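 TMD-8 cells were exposed for 6 h to 8 compound doses (6-fold serial dilution, 0.2% DMSO). Lysed cells were incubated overnight at room temperature with HTRF antibodies and read at 665/620 nm. DC50 came from four-parameter fitting of % inhibition versus concentration.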

HEK-293 cells = experiment: HEK-293 cytotoxicity detection (CellTiter-Glo); type: cell-based; conditions: Homo sapiens; HEK-293 cells, 72 h incubation, CellTiter-Glo luminescence, IC50 of cell proliferation inhibition; read-out: HEK293
In short: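 HEK-293 cells exposed 72 h to an 8-point, 4-fold dilution series (top 500× stock 5 mM in DMSO; 0.2% DMSO final). Viability by CellTiter-Glo luminescence after 10 min at room temperature; IC50 from four-parameter Hill fit of percent inhibition.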

DC50 (BTK) [nM] | Structure (SMILES) | IC50 (HEK-293 cells) [nM]
1.29 | Cc1cc(-c2ncnc3[nH]c4cc(C5CCN(CC6CCN(c7ccc(N8CCC(=O)NC8=O)cc7)CC6)CC5)ncc4c23)ccc1[C@@H](C)NC(=O)c1nc(C(C)(C)C)no1 [Example 42, (R)-3-(tert-butyl)-N-(1-(4-(7-(1-((1-(4-(2,4-dioxotetrahydropyrimidin-1(2H)-yl)phenyl)piperidin-4-yl)methyl)piperidin-4-yl)-9H-pyrido[3′,4′:4,5]pyrrolo[2,3-d]pyrimidin-4-yl)-2-methylphenyl)ethyl)-1,2,4-oxadiazole-5-carboxamide] | 6730
1.22 | Cc1cc(-c2ncnc3[nH]c4cc(N5CCN(CC6CCN(c7ccc(N8CCC(=O)NC8=O)cc7)CC6)CC5)c(C)cc4c23)ccc1[C@@H](C)NC(=O)c1nc(C(C)(C)C)no1 [Example 43, (R)-3-(tert-butyl)-N-(1-(4-(7-(4-((1-(4-(2,4-dioxotetrahydropyrimidin-1(2H)-yl)phenyl)piperidin-4-yl)methyl)piperazin-1-yl)-6-methyl-9H-pyrimido[4,5-b]indol-4-yl)-2-methylphenyl)ethyl)-1,2,4-oxadiazole-5-carboxamide] | > 10000
1.38 | Cc1cc(-c2ncnc3[nH]c4cc(N5CCN(CC6CCN(c7ccc(N8CCC(=O)NC8=O)cc7)CC6)CC5)c(C)cc4c23)c(F)cc1[C@@H](C)NC(=O)c1noc(C(C)(C)C)n1 [Example 44, (R)-5-(tert-butyl)-N-(1-(4-(7-(4-((1-(4-(2,4-dioxotetrahydropyrimidin-1(2H)-yl)phenyl)piperidin-4-yl)methyl)piperazin-1-yl)-6-methyl-9H-pyrimido[4,5-b]indol-4-yl)-5-fluoro-2-methylphenyl)ethyl)-1,2,4-oxadiazole-3-carboxamide] | > 10000
1.05 | Cc1cc2c(cc1N1CCN(CC3CCN(c4ccc(N5CCC(=O)NC5=O)cc4)CC3)CC1)[nH]c1ncnc(-c3ccc([C@@H](C)NC(=O)c4noc(C(C)(C)C)n4)c(C)c3F)c12 [Example 45, (R)-5-(tert-butyl)-N-(1-(4-(7-(4-((1-(4-(2,4-dioxotetrahydropyrimidin-1(2H)-yl)phenyl)piperidin-4-yl)methyl)piperazin-1-yl)-6-methyl-9H-pyrimido[4,5-b]indol-4-yl)-3-fluoro-2-methylphenyl)ethyl)-1,2,4-oxadiazole-3-carboxamide] | > 10000
0.366 | COc1cc2c(cc1N1CCN(CC3CCN(c4ccc(N5CCC(=O)NC5=O)cc4)CC3)CC1)[nH]c1ncnc(-c3ccc([C@@H](C)NC(=O)c4nc(C(C)(C)C)no4)c(C)c3)c12 [Example 46, (R)-3-(tert-butyl)-N-(1-(4-(7-(4-((1-(4-(2,4-dioxotetrahydropyrimidin-1(2H)-yl)phenyl)piperidin-4-yl)methyl)piperazin-1-yl)-6-methoxy-9H-pyrimido[4,5-b]indol-4-yl)-2-methylphenyl)ethyl)-1,2,4-oxadiazole-5-carboxamide] | > 10000
1.7 | COc1cc2c(cc1N1CCN(CC3CC(c4ccc(C5CCC(=O)NC5=O)cc4)C3)CC1)[nH]c1ncnc(-c3ccc([C@@H](C)NC(=O)c4nc(C(C)(C)C)no4)c(C)c3)c12 (stereo partly drawn) [Example 47, 3-(tert-butyl)-N-((1R)-1-(4-(7-(4-((3-(4-(2,6-dioxopiperidin-3-yl)phenyl)cyclobutyl)methyl)piperazin-1-yl)-6-methoxy-9H-pyrimido[4,5-b]indol-4-yl)-2-methylphenyl)ethyl)-1,2,4-oxadiazole-5-carboxamide] | > 10000
0.874 | COc1cc2c(cc1N1CCN(C3CCC(c4ccc(C5CCC(=O)NC5=O)cc4)CC3)CC1)[nH]c1ncnc(-c3ccc([C@@H](C)NC(=O)c4nc(C(C)(C)C)no4)c(C)c3)c12 (stereo partly drawn) [Example 48, 3-(tert-butyl)-N-((1R)-1-(4-(7-(4-(4-(4-(2,6-dioxopiperidin-3-yl)phenyl)cyclohexyl)piperazin-1-yl)-6-methoxy-9H-pyrimido[4,5-b]indol-4-yl)-2-methylphenyl)ethyl)-1,2,4-oxadiazole-5-carboxamide] | > 10000
1.08 | COc1cc2c(cc1N1CCN(C3CC(c4ccc([C@@H]5CCC(=O)NC5=O)cc4)C3)CC1)[nH]c1ncnc(-c3ccc([C@@H](C)NC(=O)c4nc(C(C)(C)C)no4)c(C)c3)c12 (stereo partly drawn) [Example 49, 3-(tert-butyl)-N—((R)-1-(4-(7-(4-(3-(4-((S)-2,6-dioxopiperidin-3-yl)phenyl)cyclobutyl)piperazin-1-yl)-6-methoxy-9H-pyrimido[4,5-b]indol-4-yl)-2-methylphenyl)ethyl)-1,2,4-oxadiazole-5-carboxamide] | > 10000
0.171 | COc1cc2c(cc1N1CCN(C3CC(c4ccc([C@H]5CCC(=O)NC5=O)cc4)C3)CC1)[nH]c1ncnc(-c3ccc([C@@H](C)NC(=O)c4nc(C(C)(C)C)no4)c(C)c3)c12 (stereo partly drawn) [Example 50, 3-(tert-butyl)-N—((R)-1-(4-(7-(4-(3-(4-((R)-2,6-dioxopiperidin-3-yl)phenyl)cyclobutyl)piperazin-1-yl)-6-methoxy-9H-pyrimido[4,5-b]indol-4-yl)-2-methylphenyl)ethyl)-1,2,4-oxadiazole-5-carboxamide] | > 10000
0.987 | COc1cc2c(cc1N1CCN(C3CCN(c4cccc(C5CCC(=O)NC5=O)c4)C3)CC1)[nH]c1ncnc(-c3ccc([C@@H](C)NC(=O)c4nc(C(C)(C)C)no4)c(C)c3)c12 (stereo partly drawn) [Example 51, 3-(tert-butyl)-N-((1R)-1-(4-(7-(4-(1-(3-(2,6-dioxopiperidin-3-yl)phenyl)pyrrolidin-3-yl)piperazin-1-yl)-6-methoxy-9H-pyrimido[4,5-b]indol-4-yl)-2-methylphenyl)ethyl)-1,2,4-oxadiazole-5-carboxamide] | > 10000
0.361 | COc1cc2c(cc1N1CCN(CC3CCN(c4ccc(N5CCC(=O)NC5=O)cc4)CC3)CC1)[nH]c1ncnc(-c3ccc([C@@H](C)NC(=O)c4nc(C5(C)CC5)no4)c(C)c3)c12 [Example 52, (R)—N-(1-(4-(7-(4-((1-(4-(2,4-dioxotetrahydropyrimidin-1(2H)-yl)phenyl)piperidin-4-yl)methyl)piperazin-1-yl)-6-methoxy-9H-pyrimido[4,5-b]indol-4-yl)-2-methylphenyl)ethyl)-3-(1-methylcyclopropyl)-1,2,4-oxadiazole-5-carboxamide] | > 10000
2.26 | COc1cc2c(cc1N1CCN(CC3CCN(c4ccc(N5CCC(=O)NC5=O)cc4)CC3)CC1)[nH]c1ncnc(-c3ccc([C@@H](C)NC(=O)c4nc(C5(C)CC5)no4)c(C)c3F)c12 [Example 53, (R)—N-(1-(4-(7-(4-((1-(4-(2,4-dioxotetrahydropyrimidin-1(2H)-yl)phenyl)piperidin-4-yl)methyl)piperazin-1-yl)-6-methoxy-9H-pyrimido[4,5-b]indol-4-yl)-3-fluoro-2-methylphenyl)ethyl)-3-(1-methylcyclopropyl)-1,2,4-oxadiazole-5-carboxamide] | > 10000
3.05 | COc1cc2c(cc1N1CCN(CC3CCN(c4ccc(N5CCC(=O)NC5=O)cc4)CC3)CC1)[nH]c1ncnc(-c3ccc([C@@H](C)NC(=O)c4nc(C(C)(C)C)no4)c(C)c3F)c12 [Example 54, (R)-3-(tert-butyl)-N-(1-(4-(7-(4-((1-(4-(2,4-dioxotetrahydropyrimidin-1(2H)-yl)phenyl)piperidin-4-yl)methyl)piperazin-1-yl)-6-methoxy-9H-pyrimido[4,5-b]indol-4-yl)-3-fluoro-2-methylphenyl)ethyl)-1,2,4-oxadiazole-5-carboxamide] | > 10000
